The test system of series [1] is DX3puroβ6 (+) cells. As to the kind of experiment: WST-1 cell viability assay, DX3puroβ6. The note with it: DX3puroβ6 (+); 48 h treatment + 24 h media; mean ± SD. Format: cell-based. How it is done:
(§1) Peptides NH2-2 and [^natCu]2 were not toxic to any cells (Figure 3, gray and black, respectively).
(§2) Cell viability was measured after treatment with either NH2-2, [^natCu]2, MMAE (free, non-targeted drug), NH2-PDC-1, or [^natCu]PDC-1 in DX3puroβ6 (+) and DX3puro (−) cells at variable concentrations up to 5 nM, and in BxPC-3 (+) and MIA PaCa-2 (−) cells at variable concentrations up to 250 nM, or with MMAE at concentrations up to 10 nM. Cells were seeded in a 96 well plate at a density of 6000 cells/well for DX3puroβ6 and DX3puro, and at a density of 10,000 cells/well for BxPC-3 and MIA PaCa-2. DMEM media was used for all cells except for BxPC-3 (RPMI 1640 media). Cells (n = 6–8 wells/cell type/compound) were treated with different concentrations of NH2-2, [^natCu]2, MMAE, NH2-PDC-1, or [^natCu]PDC-1 dissolved in the respective media, as well as their respective media (no treatment) for 48 h (37 °C, 5% CO2), after which the media was removed; cells were washed twice with media (200 μL) and re-incubated in media (37 °C, 5% CO2) for 24 h. The media was then removed and the WST-1 reagent was added to each well, and the cells were incubated for 2 h at 37 °C. The 96 well plates were read at 450 nm by a Multiscan Ascent microplate reader. The percent cell viability was normalized to untreated cells (set as 100% viability) for each cell line.
In general terms: Formazan colour is commonly taken as a measure of viable cells.

Series [2] concerns DX3puro (−) cells. As to the kind of experiment: WST-1 cell viability assay, DX3puro. Format: cell-based. The conditions noted are these: 48 h treatment + 24 h media, up to 5 nM, mean ± SD. How it is done: as §1, §2
Series [3] relates to BxPC-3 (+) cells. As to the kind of experiment: WST-1 cell viability assay, BxPC-3. Format: cell-based. The note with it: 48 h treatment + 24 h media, mean ± SD. How it is done: as §1, §2
The subject of series [4] is MIA PaCa-2 (−) cells. As to the kind of experiment: WST-1 cell viability assay, MIA PaCa-2. Format: cell-based. The note with it: MIA PaCa-2 (−); 48 h treatment + 24 h media; up to 250 nM (MMAE up to 10 nM); mean ± SD. How it is done:
as §1, §2

Series [5] deals with DX3puroβ6 (+) cells. As to the kind of experiment: Caspase-3/7 activity assay (ApoTox-Glo), DX3puroβ6. The note with it: DX3puroβ6 (+); 0.625 nM (MMAE 1 nM, staurosporine 100 nM); 24, 48, 72 h. The series is classed as cell-based. Here is the method: (§3) Caspase-3/7 activity was analyzed using an ApoTox-Glo Triplex Assay kit. Cells were seeded in a 96 well plate at the same density and using the same respective media as described for the WST-1 assay and incubated overnight (37 °C, 5% CO2). DX3puroβ6 and DX3puro cells were treated with 1 nM of MMAE (free, non-targeted drug) or 0.625 nM of the other compounds: NH2-2, [^natCu]2, NH2-PDC-1, or [^natCu]PDC-1. BxPC-3 and MIA PaCa-2 cells were treated with 10 nM of MMAE or 250 nM of the other compounds: NH2-2, [^natCu]2, NH2-PDC-1, or [^natCu]PDC-1. All cells were treated with 100 nM of staurosporine as a positive control.[24] Untreated cells (media) were used as a measure of endogenous caspase-3/7 activity (normalized to 1). Cells were treated (n = 4/cell line/compound/time) for 24, 48, or 72 h (37 °C, 5% CO2) prior to washing. After treatment, the media was removed, cells were washed, and Caspase-Glo 3/7 reagent was added, and incubated for 1 h at room temperature. Caspase-3/7 activity was analyzed by measuring luminescence with a Fluoroskan FL microplate reader according to the manufacturer’s protocol.

Series [6] concerns DX3puro (−) cells. As to the kind of experiment: Caspase-3/7 activity assay (ApoTox-Glo), DX3puro. The series is classed as cell-based. The conditions noted are these: 0.625 nM (MMAE 1 nM, staurosporine 100 nM), 24, 48, 72 h. Here is the method:
as §3

In series [7] the test system is BxPC-3 (+) cells. The series is described as follows: Caspase-3/7 activity assay (ApoTox-Glo), BxPC-3. Format: cell-based. The note with it: 250 nM (MMAE 10 nM, staurosporine 100 nM), 24, 48, 72 h. How it is done:
as §3

The test system of series [8] is MIA PaCa-2 (−) cells. As to the kind of experiment: Caspase-3/7 activity assay (ApoTox-Glo), MIA PaCa-2. The series is classed as cell-based. The note with it: 250 nM (MMAE 10 nM, staurosporine 100 nM), 24, 48, 72 h. Here is the method:
as §3

Series [9] concerns DX3puroβ6 (+) and DX3puro (−) tumors. The series is described as follows: Therapy study, control groups (half DX3puroβ6 (+), half DX3puro (−) tumors). Format: in vivo, mice. An excerpt:
Mice treated with [^natCu]PDC-1 had slower tumor growth compared to the groups receiving saline, non-drug bearing peptide [^natCu]2, or free, non-targeted MMAE (Figure 7). […] All mice in the groups treated with saline, non-drug bearing peptide [^natCu]2, or free, non-targeted MMAE had met an end point criterion (≥2 cm in any direction and/or tumor ulceration) by 56 days, 70 days, and 64 days from start of treatment, respectively, with all these groups having the same median survival of 37 days (Figure 7B).
Figure 7 (A) Average tumor volume over time. (B) Kaplan–Meier survival plot.
Tumor xenografts were established by subcutaneous injection of either DX3puroβ6 or DX3puro cells (3 × 10^6 cells in 100 μL serum-free DMEM/animal) into the flank. The tumors were allowed to grow for 19 days before the start of treatment (day 0). […] Tumor volumes and body weights (to assess possible systemic toxicity) were measured starting on day 0, and once a week thereafter until the end of the study. Tumor volume (V) was determined according to the equation V = (π/6) × L × W × H, where L is the longest axis, W is the axis perpendicular to L, and H is perpendicular to the plane of L and W. End point determination criteria were: any axis >2 cm, active ulceration, or compromised health of the mouse (>20% loss of body weight from the start of the study). […] Survival curves were determined by Kaplan–Meier method.

For series [10] the following is noted: cited from earlier work. Here is the method: Tumor xenografts were established by subcutaneous injection of either DX3puroβ6 or DX3puro cells (3 × 10^6 cells in 100 μL serum-free DMEM/animal) into the flank. The tumors were allowed to grow for 19 days before the start of treatment (day 0). Mice were treated with either (1) saline, (2) peptide ([^natCu]2), 6 mg/kg, 1.12 μmol/kg), (3) non-targeted drug (MMAE, 0.3 mg/kg, 0.42 μmol/kg), or (4) PDC ([^natCu]PDC-1, 6 mg/kg, 0.88 μmol/kg). Dosing of MMAE was 0.3 mg/kg as per maximum dose with no physiological response.[25] The [^natCu]PDC-1 treatment groups consisted of n = 10/tumor model, whil ...

Molecules are shown by their SMILES. Square brackets hold non-standard residues; d marks the D form. Peptide text beside a SMILES is read from it. * marks the point of attachment. Dolaproine = CO[C@@H]([C@@H]1CCCN1)[C@@H](C)C(=O)O; Dil = CC[C@H](C)[C@H](NC)[C@@H](CC(=O)O)OC; X1 = C[C@@H](N*)[C@@H](O)c1ccccc1; NMeV = CN[C@H](C(=O)O)C(C)C Where only a bound is given, the exact number is not on record here.

The EC50 is the concentration that produces a half-maximal response.

Turning to `CC[C@H](C)[C@@H]([C@@H](CC(=O)N1CCC[C@H]1[C@H](OC)[C@@H](C)C(=O)N[C@H](C)[C@@H](O)c1ccccc1)OC)N(C)C(=O)[C@@H](NC(=O)[C@@H](NC)C(C)C)C(C)C` [MMAE, monomethyl auristatin E] (H-[NMeV]V[Dil][Dolaproine]-X1), the EC50 in the series on DX3puroβ6 (+) cells [1] worked out at 150 ± 20 pM; in the series on DX3puro (−) cells [2], 140 ± 30 pM; in the series on BxPC-3 (+) cells [3] it was 500 ± 30 pM; with MIA PaCa-2 (−) cells [4], 160 ± 10 pM. Besides, the “Caspase-3/7 activity (in words)” value in the series with DX3puroβ6 (+) cells [5], with DX3puro (−) cells [6], in the series on BxPC-3 (+) cells [7] and in the series on MIA PaCa-2 (−) cells [8] was “increased caspase-3/7 activity” in each case. In [9] ([natCu]2 6 mg/kg, MMAE 0.3 mg/kg i.v. on days 0, 3, 6, 9, n = 8/group), the Median survival came to 37 days. For the same molecule, in series [9] (from start of treatment), the “Time by which all mice had met an end point criterion” value is reported as no more than 64 days. In addition, in series [10], the “Maximum dose with no physiological response” value was 0.3 mg/kg.

(Values after paper PMC10388305, “Synthesis and Evaluation of a Monomethyl Auristatin E—Integrin αvβ6 Binding Peptide–Drug Conjugate for Tumor Targeted Drug Delivery” (Journal of Medicinal Chemistry, 2023).)
